One assay has as its system K-562. The assay is described as follows: growth rate after taurolidine treatment, K-562. The assay is classed as cell-based, human. The procedure: (§1) FIGS. 6A and 6B depict cell viability and growth rates for K562 cell line following taurolidine treatment, in terms of % trypan blue negative cells and % cell number, respectively. Cells were treated with various concentrations of taurolidine for 4 hours in AIM-V+0.01% BCS. After aliquots were collected for LDH assay, the remainder of the culture was rinsed in HBSS and resuspended in RPMI+10% BCS without taurolidine. Counts of trypan blue-negative cells (FIG. 6A), and total cell number (FIG. 6B), were recorded daily thereafter (with the measurement at Day 1 being made immediately after the 4 hour taurolidine treatment). Conditions were: no treatment (open circles); 25 μg/ml taurolidine (closed circles); 50 μg/ml taurolidine (open squares); 100 μg/ml taurolidine (closed squares); and vehicle alone (closed triangles). Doubling times were determined under each condition, and expressed as a percentage of the rate of doubling of untreated cells. These values are located to the right of the growth curves in (FIG. 6B). Cells were subcultured when they reached a concentration of 6×10^5 cells/ml. Data are mean±SEM of three experiments.
In these experiments, integrity of cell membranes following taurolidine treatment was assessed by exclusion of trypan blue and by measuring the release of LDH in MM6, K-562, HL-60, and REH cells. Since BCS contains significant amounts of LDH, these experiments were conducted on cells cultured in AIM-V+0.01% BCS. Four hour treatment of cells was conducted in AIM-V containing 0.01% BCS in order to allow subsequent LDH assay without interference from BCS (which occurs in when normal culture medium, containing 10% BCS, is used). Thus, MM6 cells (5×10^5 cells/ml) were treated with taurolidine for four hours in AIM-V+0.01% BCS, after which an aliquot of the cell suspension was removed for measurement of LDH release. A parallel aliquot of cells was lysed by three cycles of freeze/thaw and the quantity of LDH released was taken to be 100%. Remaining cells were rinsed in HBSS and resuspended in growth medium for measurement of growth rates.
HL-60 cells treated with 50 μl taurolidine. In these samples, LDH present in the culture medium was 8.3±2.3% of that released by completely lysed cells, compared with 2.3±0.8% measured in control cultures. […] After 4 hour treatment, cells were rinsed and returned to growth medium and monitored for viability and growth over the following 3 days. Concentrations of taurolidine from 25 μg/ml to 100 μ/ml were used in order to highlight differences in sensitivity of cell lines to taurolidine.
^b Growth rate was measured over three days following treatment.

Another assay has as its system Jurkat cells. The assay is described as follows: trypan blue exclusion, Jurkat. The assay is classed as cell-based, human. The conditions noted are these: 25 μg/ml taurolidine. As for the experimental part:
as §1, with “9A” for “6A”, “9B” for “6B”, “Jurkat” for “K562”, “9A),” for “6A),”, “9B),” for “6B),”, “9B). […]” for “6B). Cells were subcultured when they reached a concentration of 6×10^5 cells/ml. Data are mean±SEM of three experiments.”
HL-60 cells treated with 50 μl taurolidine. In these samples, LDH present in the culture medium was 8.3±2.3% of that released by completely lysed cells, compared with 2.3±0.8% measured in control cultures. […] After 4 hour treatment, cells were rinsed and returned to growth medium and monitored for viability and growth over the following 3 days. […]

The test system of the next assay is REH. The assay is described as follows: LDH release (cell membrane integrity), REH. The assay is classed as cell-based. The conditions noted are these: Homo sapiens, 4 h, read-out: LDH (% of total). The procedure:
as §1, with “8A” for “6A”, “8B” for “6B”, “REH” for “K562”, “8A),” for “6A),”, “8B),” for “6B),”, “These values are located to the right of the growth curves in (FIG. 6B). Cells were subcultured when they reached a concentration of 6×10^5 cells/ml. Data are mean±SEM of three experiments.” left out
In these experiments, integrity of cell membranes following taurolidine treatment was assessed by exclusion of trypan blue and by measuring the release of LDH in MM6, K-562, HL-60, and REH cells. […] A parallel aliquot of cells was lysed by three cycles of freeze/thaw and the quantity of LDH released was taken to be 100%. […]
^a LDH was measured immediately after four hour taurolidine treatment.
In general terms: Release of lactate dehydrogenase indicates damage to the cell membrane.

Molecules are shown by their SMILES.

For the molecule `O=S1(=O)CCN(CN2CCS(=O)(=O)NC2)CN1` [taurolidine, 4,4'-methylenebis(perhydro-1,2,4-thiadiazin 1,1-dioxide)], the activity at 50 µg/mL with K-562 (Homo sapiens, K562, 72 h, K-562, 50 μg/ml for 4 h, growth over three days, read-out: growth rate (% of control)) worked out at 52%. The activity at 100 µg/mL in the assay on K-562 (Homo sapiens, K562, 72 h, K-562, 100 μg/ml for 4 h, growth over three days, read-out: growth rate (% of control)) was found to be 0%. The “sensitivity of cell growth among cell lines” value with K-562 (K562) is listed as “least affected”. In the assay on K-562 (K562, 50 μg/ml or greater), the “growth after taurolidine treatment” value is reported as “inhibition of growth”. For the same molecule, the “trypan blue staining after treatment” value in the assay on Jurkat cells is “did not show an increase in trypan blue staining”. Further, in the assay on REH (50 μg/ml), the cytotoxicity at 50 µg/mL was found to be 6%. In addition, in the assay with REH (100 μg/ml), the cytotoxicity at 100 µg/mL was found to be 5%.

The values are drawn from patent US6303596A, “Use of taurolidine for treatment of leukemias” (priority 2000, dated 2001).
